Measured values: patent US4145337A, “Aminoethylglycine containing polypeptides” (Hoffmann-La Roche Inc., priority 1977, dated 1979)
Non-standard residues stand in square brackets, D forms with d. Residues, ends and D or L forms follow the SMILES beside them. Gly(N-2-aminoethyl) = NCCNCC(=O)O

How the values were obtained:
[1] = test system: basal gastric acid secretion; assay: Gastric antisecretory activity in unanesthetized gastric fistula rat, i.v.; type: in vivo; conditions: 200 μg i.v. single bolus
Procedure: The gastric antisecretory effect of somatostatin analogs was studied in a model which utilizes unanesthetized rats.
All operative techniques were carried out on fasted female albino rats (average weight 250 g), under Penthrane anesthesia, using montraumatic microsurgical instruments, polyethylene tubing and a special adhesive. The basic model used in the present studies consisted of:
This allowed adequate hydration through the constant infusion of 0.15M NaCl (at the rate of 1.4 ml/hr.). This catheter was also used for i.v. administration of solutions of the test compounds.
(b) Catheterization of the stomach. A cannula in the forestomach allowed washing of the gastric lumen with saline (before experiments). Water (0.2 ml/10 min) was infused through this catheter during the experimental periods. This was done to prevent obstruction of the "collecting" cannula (see below) by gastric debris and to obtain a practical workable volume to measure several parameters of gastric secretion. A second cannula was positioned in the glandular stomach, close to the greater curvature, in the more dependent site and in such a way as to allow collection, by gravity, of all fluids emerging from the stomach. Passage of these secretions through a small glass container permitted continuous recording of pH by means of a glass microelectrode. A fraction collector was used to simultaneously obtain the gastric secretions.
(c) Catheterization of the lower part of the common bile duct to procure mixed secretions of bile and pancreatic juice as a function of time. This was done with the purpose of examining the effect of these compounds, if any, on bile flow.
This preparation is suitable for the bioassay of microgram quantities of gastric secretory depressants in which each animal serves as its own control. The rats (250 g b.w.) were allowed to attain a period of stabilized gastric acid output (for one hour) and were then injected intravenously (100 μl) with 200 μg of the test compound. This single bolus injection was immediately followed by a rinsing injection of 50 μl saline, thus insuring quantitative delivery of the dose. The pH was recorded continuously for 1 hour before and 1 1/2 hour after the i.v. injection of the test compounds. The gastric secretions were collected over 10-minute intervals before and after dosage. Four parameters of gastric secretion were evaluated: (a) changes in the negative logarithm of the hydrogen ion activity (pH, determined by the glass electrode either by a continuous trace or in samples taken at 10-minute intervals); (b) volume; (c) total acid concentration (μEq/ml); and d) total acid output (μEq/10-min periods).

[2] = test system: growth hormone, insulin and glucagon; conditions: Brown et al. 1977; cited from earlier work
[3] = test system: pentagastrin-induced gastric acid secretion; conditions: Brown et al. 1977; cited from earlier work
gastric secretion [4] = assay: Gastric antisecretory activity after intragastric administration, unanesthetized rat; type: in vivo; conditions: 8 mg/kg b.w. intragastrically, saline solution
Procedure: The unanesthetized rat model was used in an exact manner to that employed in the evaluation of gastric antisecretory activity after parenteral administration described above in A, with the following modification. Following recording of the gastric pH for 1 hour, drainage of the gastric secretions was interrupted by means of a forceps. Saline solutions (total volume = 1000 μl) of Compound N (at the dose of 8 mg/kg b.w.) were then intragastrically administered, via the canula in the avascular stomach, which was closed. Fifteen minutes later, the catheter draining the gastric secretions was reopened; the water infusion through the catheter in the forestomach was simultaneously reestablished. The pH was now recorded continuously for 1 1/2 hours. Samples of gastric juice were taken before and after treatment, and analyzed for the usual four parameters of gastric secretion.

gastric mucus production = assay: Stimulation of mucoprotein production: gastric mucosal carbohydrates and total protein; type: in vivo, rat; conditions: 800 μg/kg i.p.
Procedure: Overnight fasted rats received saline solutions of either Compound M or Compound A at the antisecretory dose of 800μg/kg administered intraperitoneally. Control rats were given only vehicle. All animals were sacrificed by decapitation 1 hour after dosing. After opening the abdomen the stomach was removed and its contents were washed away with 10 ml of a 0.85% NaCl solution. The excised stomachs were cut open along the greater curvature and the exposed gastric mucosa was carefully scraped. The scrapings were homogenized in 5 ml of the 0.85% NaCl solution and subjected to chemical analysis. Total hexoses were determined by the anthrone reaction, which is based on the formation in concentrated sulfuric acid of furfural derivatives which react with anthrone to form a blue-green color; this reaction has the advantage of being applied directly to the glycoprotein with color formation occuring concurrently with the liberation of sugars (Methods in Enzymology, Vol. VIII, pp. 4-5 1966). Fucose in the unhydrolyzed mucoprotein was determined by the Dische-Shettes cysteine-sulfuric acid reaction for methyl pentoses. This method allows accurate determination of fucose even in the presence of large amounts of hexoses and peptide material (Methods in Eznymology, Vol. VIII, pp 11-13 , 1966).
Total protein was determined using the Lowry method.

[5] = test system: restraint-immersion induced gastric ulceration; assay: Mouse restraint-immersion test, antiulcerogenic activity; type: in vivo
Procedure: In both studies CD-1 male mice weighing between 18-25 g were used. The mice were fasted for 19 hours prior to the initiation of restraint-immersion which involved restraining animals in rubber hoses and immersion in water (21° C.) to the height of the xiphoid process. In the first study, just prior to the initiation of the restraint-immersion procedure, mice received, via the subcutaneous route, graded amounts (0.1 to 10 mg/kg b.w.) of somatostatin (Compound A), Compound F, or vehicle (5% acacia); this administration was repeated two hours later. In the second study, the compounds (Compound A, Compound L, or vehicle) were administered only once, just prior to the initiation of the restraint-immersion procedure. Following four hours of restraint-immersion the animals (both studies) were killed and their stomachs examined for ulceration. The degree of ulceration was determined by the amount of visible blood present in the stomach and was rated on a scale of 0 to 4, with 0 being no detectable blood and 4 being a massive amount of blood. All compounds were dispersed in 5% acacia and administered at a dosage volume of 0.2 ml per 20 grams of body weight. The antiulcerogenic ED50 values were calculated using percent protection as the response and a computer program ("ED50") based on the probit method of Finney (Finney, "Probit Analysis", Cambridge University Press, 1971). The comparative effectiveness (relative potency R. P.) of somatostatin and Compound F (first study) or somatostatin and Compound L (second study) was determined from the dose responses using an "ED50" computer program.

[6] = test system: basal gastric secretion and gastrin release; conditions: Bloom et al. 1974; cited from earlier work
[7] = test system: restraint ulcer formation; conditions: cited from earlier work
peptic ulcer bleeding = conditions: infusion in man, Rasche et al. 1976; cited from earlier work
gastric secretion [8] = conditions: chronic fistula dog, Torchiana et al. 1977; cited from earlier work
[9] = test system: duodenal ulcers produced by prolonged administration of pentagastrin or histamine; conditions: cats, continuous i.v. infusion 0.62 to 5.0 μg/kg-hr; cited from earlier work
[10] = test system: gastrointestinal bleeding from residual ulcers; conditions: patient, 250 μg i.v. bolus then 250 μg per hour for 67 hours; cited from earlier work
[11] = 1 hour after dosing, mucosal scrapings

C[C@H](NC(=O)CNCCN)C(=O)NCC(=O)N[C@@H](CS)C(=O)N[C@@H](CCCCN)C(=O)N[C@@H](CC(N)=O)C(=O)N[C@@H](Cc1ccccc1)C(=O)N[C@@H](Cc1ccccc1)C(=O)N[C@@H](Cc1c[nH]c2ccccc12)C(=O)N[C@@H](CCCCN)C(=O)N[C@H](C(=O)N[C@@H](Cc1ccccc1)C(=O)N[C@H](C(=O)N[C@@H](CO)C(=O)N[C@@H](CS)C(=O)O)[C@@H](C)O)[C@@H](C)O [Compound E, Aminoethylglycyl-L-alanyl-glycyl-L-cysteinyl-L-lysyl-L-asparaginyl-L-phenylalanyl-L-phenylalanyl-L-tryptophyl-L-lysyl-L-threonyl-L-phenylalanyl-L-threonyl-L-seryl-L-cysteine]
gastric antisecretory activity (pH and acid concentration), in words, relative to somatostatin [1]: severely decreases activity

C[C@@H](O)[C@@H]1NC(=O)[C@H](CCCCN)NC(=O)[C@H](Cc2c[nH]c3ccccc23)NC(=O)[C@H](Cc2ccccc2)NC(=O)[C@H](Cc2ccccc2)NC(=O)[C@H](CC(N)=O)NC(=O)[C@H](CCCCN)NC(=O)CN(CCN)C(=O)[C@H](CO)NC(=O)[C@H]([C@@H](C)O)NC(=O)[C@H](Cc2ccccc2)NC1=O [Compound D, Cyclo [Aminoethylglycyl-L-lysyl-L-asparaginyl-L-phenylalanyl-L-phenylalanyl-L-tryptophyl-L-lysyl-L-threonyl-L-phenylalanyl-L-threonyl-L-seryl]] (cyclo(FFWKTFTS[Gly(N-2-aminoethyl)]KN))
gastric antisecretory activity (pH and acid concentration), in words, relative to somatostatin [1]: erratic activity

C[C@H](N)C(=O)NCC(=O)N[C@@H](CS)C(=O)N[C@@H](CCCCN)C(=O)N[C@@H](CC(N)=O)C(=O)N[C@@H](Cc1ccccc1)C(=O)N[C@@H](Cc1ccccc1)C(=O)N[C@@H](Cc1c[nH]c2ccccc12)C(=O)N[C@@H](CCCCN)C(=O)N[C@H](C(=O)N[C@@H](Cc1ccccc1)C(=O)N[C@H](C(=O)N[C@@H](CO)C(=O)N[C@@H](CS)C(=O)O)[C@@H](C)O)[C@@H](C)O [Compound B, HAlaGlyCysLysAsnPhePheTrpLysThrPheThrSerCysOH]
gastric antisecretory activity (pH and acid concentration), in words, relative to somatostatin [1]: as active as the oxidized, cyclic somatostatin

C[C@@H](O)[C@H](NC(=O)[C@H](Cc1ccccc1)NC(=O)[C@@H](NC(=O)[C@H](CCCCN)NC(=O)[C@H](Cc1c[nH]c2ccccc12)NC(=O)[C@H](Cc1ccccc1)NC(=O)[C@H](Cc1ccccc1)NC(=O)[C@H](CC(N)=O)NC(=O)[C@H](CCCCN)NC(=O)[C@H](CS)NC(=O)CNCCN)[C@@H](C)O)C(=O)N[C@@H](CO)C(=O)N[C@@H](CS)C(=O)N(CCN)CC(=O)O [Compound J, Aminoethylglycyl-L-cysteinyl-L-lysyl-L-asparaginyl-L-phenylalanyl-L-phenylalanyl-L-tryptophyl-L-lysyl-L-threonyl-L-phenylalanyl-L-threonyl-L-seryl-L-cysteinyl-aminoethylglycine] (H-[Gly(N-2-aminoethyl)]CKNFFWKTFTSC[Gly(N-2-aminoethyl)]-OH)
gastric antisecretory activity (pH and acid concentration), in words, relative to somatostatin [1]: less active than somatostatin

(D-Trp^8)-somatostatin
potency in inhibition of growth hormone, insulin and glucagon relative to somatostatin [2]: higher potency than somatostatin
potency in inhibition of pentagastrin-induced gastric acid secretion relative to somatostatin [3]: less potent

Aminoethylglycyl-aminoethylglycyl-L-cysteinyl-L-lysyl-L-asparaginyl-L-phenylalanyl-L-phenylalanyl-D-tryptopyl-L-lysyl-L-threonyl-L-phenylalanyl-L-threonyl-L-seryl-L-cysteine [Compound N]
gastric antisecretory activity after intragastric administration (gastric secretion [4]): active after intragastric administration

C[C@H](N)C(=O)NCC(=O)N[C@H]1CSSC[C@@H](C(=O)O)NC(=O)[C@H](CO)NC(=O)[C@H]([C@@H](C)O)NC(=O)[C@H](Cc2ccccc2)NC(=O)[C@H]([C@@H](C)O)NC(=O)[C@H](CCCCN)NC(=O)[C@H](Cc2c[nH]c3ccccc23)NC(=O)[C@H](Cc2ccccc2)NC(=O)[C@H](Cc2ccccc2)NC(=O)[C@H](CC(N)=O)NC(=O)[C@H](CCCCN)NC1=O [Compound A, somatostatin]
Fucose, gastric mucosal concentration (mean) (gastric mucus production; [11]): 46.2 μg/total sample
Hexose, gastric mucosal concentration (mean) (gastric mucus production; [11]): 235.3 μg/total sample
Total Protein, gastric mucosal concentration (mean) (gastric mucus production; [11]): 350.0 μg/total sample
gastric mucosal carbohydrates versus control, in words (gastric mucus production; 1 hour after treatment): did not appear to influence concentration of carbohydrates
gastric mucosal total protein versus control, in words (gastric mucus production; 1 hour after treatment): produced an increment of the total protein
prevention of restraint-immersion induced gastric ulceration, in words ([5]; first study, s.c. twice): effective in preventing restraint-immersion induced gastric ulceration
antiulcerogenic ED50 ([5]; first study: s.c. just prior to restraint-immersion, repeated two hours later, 4 h restraint-immersion): 0.35 mg/kg
ED50 ([5]; second study: administered only once just prior to restraint-immersion, 4 h): 6.70 mg/kg
effect on basal gastric secretion and gastrin release [6]: inhibits basal gastric secretion and gastrin release
ulcers relative to untreated animals ([7]; 100 μg linear protamine-zinc-somatostatin/rat s.c. before, 3 h and 6 h, after 9 hours of immobilization): 1/5
effect on restraint ulcer formation ([7]; subcutaneous administration in rats, Zierden et al. 1976): prophylactic effect on restraint ulcer formation
effect on peptic ulcer bleeding (peptic ulcer bleeding): stop peptic ulcer bleeding
duration of inhibitory effects on gastric secretion (gastric secretion [8]): short duration
prevention of duodenal ulcers [9]: effectively prevented the formation of duodenal ulcers
effect on bleeding [10]: immediate cessation of the bleeding after 1 hour
endoscopy at the end of treatment period [10]: two ulcers in the process of healing
